Consider two compounds from patent publication US6677309B1, “Anti-cancer drug aldehyde conjugate drugs with enhanced cytotoxicity compounds, compositions and methods” (University Technology Corporation, priority 1997, dated 2004).

Read-outs that look alike come from different tables or passages of the source. A value given as a limit tells only on which side of the number the result lay.

The subject of one data set is DU-145. In words: Prostate cancer cell cytotoxicity, crystal violet assay, DU-145. The class given is cell-based, human. The following applies: Homo sapiens. The procedure: (§1) Toxicity to the three prostate cancer cell lines, LNCaP, DU-145, and PC-3 were measured in two different media, RPMI-1640 and DMEM (Dulbecco's Modified Eagle Medium), both supplemented with 10% fetal bovine serum.
(§2) Cell lines were maintained in vitro in RPMI 1640 media or DMEM, each supplemented with 10% fetal bovine serum, 2 mM L-glutamine, 10 mM HEPES buffer, penicillin (100 units/mL) and streptomycin (100 μg/mL).
(§3) Cells were dissociated with trypsin/EDTA, counted, and suspended in growth media (RPMI or DMEM) to a concentration of 5.6×10^3 cells/mL. Cell suspensions were dispensed in 180 μL aliquots into 96-well tissue culture plates. […] Each 100× solution was diluted 10× in growth media (RPMI or DMEM), and a 20 μL aliquot of the resulting 10× solution was immediately (<10s) added to-the appropriate lane. Additionally, one lane was treated with 20 μL of 10% DMSO in growth media (no drug) and one lane was treated with 200 μL of 1.5 M Tris buffer (no cells). The cells were incubated with the drugs for 3 h at 37° C. The drug solutions were then removed and replaced with 200 μL of fresh media. The cells were incubated for 4 days (7 days for PC-3 cells in DMEM) at 37° C. in a humidified atmosphere of 5% CO2 and 95% air. Cell survival was determined using a crystal violet assay as described earlier (Fenick, D. J. et al (1997) J. Med. Chem. 40: 2452-2461).

Another data set deals with LNCaP. In words: Prostate cancer cell cytotoxicity, crystal violet assay, LNCaP. The following applies: Homo sapiens, LNCaP. In kind it is cell-based, human. The procedure:
as §1, §2, §3

The next data set concerns MCF-7 cells. In words: In vitro cytotoxicity, colony formation by crystal violet assay, MCF-7. The procedure:
(§4) The term IC50 as used herein refers to the concentration of drug which inhibits cell growth by 50%, i.e., 50% of cells are viable at the IC50 concentration relative to a no-drug control.
(§5) Cells were incubated with drug for 3 h in RPMI (Roswell Park Memorial Institute) 1640 media containing 10% fetal bovine serum and 1% DMSO. Plates, were developed using the crystal violet assay. […] In all cases percent survival was determined by the extent of colony formation six days after drug treatment.
(§6) All tissue culture materials were obtained from Gibco Life Technologies (Grand Island, N.Y.) unless otherwise stated. MCF-7 breast cancer cells were obtained from American Type Culture Collection (Rockville, Md.). […] Both cell lines were maintained in vitro by serial culture in phenol red-free RPMI Media 1640 supplemented with 10% fetal bovine serum (Gemini Bio-Products, Calbasas, Calif.), L-glutamine (2 mM), HEPES buffer (10 mM), penicillin (100 units/mL), and streptomycin (100 μg/mL). […] Cells were maintained at 37° C. in a humidified atmosphere of 5% CO2 and 95% air.
(§7) Cells were dissociated with trypsin-EDTA, counted, and suspended in growth media to a concentration of 5×10^3 cells/mL. Cell suspensions were dispensed in 200 μL aliquots into 96-well tissue culture plates. Plates were then incubated for 24 h at 37° C. in a humidified atmosphere of 5% CO2 and 95% air. The media was replaced with 180 μL of growth media prior to addition of the cytotoxic agents.
(§8) Concentrations were then corrected by measuring the solution absorbance at 480 nm (ε=11,500/mole anthracycline). The solutions were then serially diluted in DMSO to give a series of 100× working concentration solutions. For each concentration, the 100× solution was diluted 1:10 in serum-free RPMI Media 1640. 20 μL of the resulting […] solution was immediately added to the appropriate lane. Additionally, one lane was treated with 20 μL of 10% DMSO in serum-free RPMI (no drug) and one lane replaced with 200 μL of 1.5 M Tris buffer (no cells). The cells were incubated at 37° C. for 3 h. The drug solutions were removed and 200 μL of fresh growth media was added to each well.
(§9) The extent of colony formation was determined by use of a crystal violet staining assay (Gilles, R. J. et al. (1986), “Determination of cell number in monolayer cultures,” Anal. Biochem. 159:109-113; Reile, H. et al. (1990), “Computerized determination of growth kinetic curves and doubling times from cells in microcultures,” Anal. Biochem. 187:262-267). […] The cells were then stained with 75 μL of 0.1% crystal violet in deionized water for 30 min. […] The plates were blotted dry and 200 μL of 70% ethanol in water was added to each well to solublize the dye. The plates were stored at 4° C. until solubilization was complete (about 4 h). The optical density of each well was measured on an ELISA plate reader at 588 nm. Relative colony sizes were determined by comparison of the drug treated lanes to the control lanes.
(§10) MCF-7 breast cancer cells were obtained from American Type Culture Collection (Rockville, Md.). MCF-7/ADR adriamycin resistant breast cancer cells were a gift of Dr. William W. Wells (Michigan State University). Both cell lines were maintained in vitro by serial culture in phenol red-free RPMI Media 1640 supplemented with 10% fetal bovine serum (Gemini Bio-Products, Calbasas, Calif.), L-glutamine (2 mM), HEPES buffer ([…]), penicillin (100 units/mL), and streptomycin (100 μg/mL). […] Cells were maintained at 37° C. in a humidified atmosphere of 5% CO2 and 95% air.
1640 media containing 10% fetal bovine serum. The resulting 90% media/10% DMSO solutions (v/v) were incubated at 37° C. for 6h.

A short description of data set [1]: Hydrolysis in aqueous phosphate buffer, HPLC. The class given is physicochemical. The settings on record: serum; read-out: estimated half-life. As to the method:
See Example 16. […] The DMSO was present to increase solubility.
Second, the kinetics of hydrolysis were measured in pH 6.0 phosphate buffer.
A 960 μL solution of pH 7.3 phosphate buffer was heated to 37° C. […] No change in the chromatography was observed if pH, 7.3 phosphate buffer was used as the eluent in place of pH 7.4 TEAA buffer.

In a further data set the test system is PC-3. In words: Prostate cancer cell cytotoxicity, crystal violet assay, PC-3. The class given is cell-based, human. The following applies: Homo sapiens. The procedure: as §1, §2, §3
The next data set deals with MCF-7/ADR cells. In words: In vitro cytotoxicity, colony formation by crystal violet assay, MCF-7/ADR. As to the method: as §4, §5, §6, §7, §8, §9, §10
These were then diluted 10× with autoclaved Millipore water.

A short description of data set [2]: Stability in DMSO and DMSO/water, NMR or HPLC. The following applies: HPLC. The class given is physicochemical. As to the method:
Crystalline dimeric formaldehyde conjugate of daunorubicin (2.8 mg, 2.6 μmol) was dissolved in 500 μL of DMSO-d6 (stored over 3 A molecular sieves) and analyzed by 400 MHz, ^1H NMR. […] Upon addition of 25 μL of D2O to the 500 μL DMSO-d6 sample, the dimeric formaldehyde conjugate of daunorubicin reacted over a 24 h period to form an equilibrium mixture consisting of 67% dimeric formaldehyde conjugate of daunorubicin and 32% of an intermediate. Because of the complexity of the spectrum, a structure could not be assigned to the intermediate; however, the intermediate appeared to have an oxazolidine ring. Upon addition of 3 equiv of hydrochloric acid in 130 μL of deuterium oxide, hydrolysis to daunorubicin-HCl was complete. The hydrochloric acid solution was prepared by the addition of 10 μL of concentrated HCl to 990 μL of D2O. The formaldehyde released from the dimeric formaldehyde conjugate of daunorubicin was detected as its hydrate. The final product was identified as daunorubicin by comparison of the NMR spectrum with that of a sample of daunorubicin plus 3 equiv of HCl. Further, the final product was isolated by removal of all volatile components under vacuum (0.1 Torr), and its ^1H NMR spectrum was identical to that of daunorubicin-HCl.
Amorphous dimeric formaldehyde conjugate of daunorubicin, when worked up in methylene chloride, was stable in DMSO for at least 4 days. It hydrolyzed with added D2O and hydrochloric acid in a manner similar to that of the crystalline material. When worked up in chloroform, amorphous dimeric formaldehyde conjugate of daunorubicin had less stability in DMSO, presumably due to traces of HCl from the chloroform.
A 1.3 mg sample of N-acetyl-3′-N,4′-O-methylenedaunorubicin was dissolved in […] of DMSO and analyzed over time by HPLC. […] At this time, […] of water was added to the DMSO/N-acetyl monomeric formaldehyde conjugate of daunorubicin solution, establishing a 50:50 DMSO:water mixture (v/v). In this solution, the N-acetyl-3′-N,4′-O-methylenedaunorubicin remained 91% intact (9% degradation to daunorubicin) over a period of 6 days, based upon the HPLC analysis.
A pH 6 triethyl ammonium acetate solution containing 13.1 μmol of epidoxorubicin-HCl and 6.6 mmol of […] was allowed to react in the dark at 25° C. for 30 min. The mixture was then extracted with chloroform with vigorous stirring for 20 min. The chloroform solution was dried over sodium sulfate and the chloroform removed by rotary evaporation. The resulting dry solid was redissolved in 1.0 mL of chloroform. To this was added 10 mL of n-hexane. After 2 days, a large amount of precipitate had formed, which was washed with 3×5 mL of n-hexane, followed by 4×1 mL of water.
The sample was maintained at ambient temperature for 2 h; after this period no change in the spectrum was observed. […] A stock 122 mM solution of HCl in D2O was prepared by adding concentrated hydrochloric acid to D2O. […] Complete hydrolysis occurred upon addition of ca. 2-3 equiv of HCl. A similar experiment was performed using HCl in H2O. […] This solution was incubated at 37° C. for 24 h prior to NMR analysis.

Where [3] appears, read: relative to the respective parent drug.
The mark [4] stands for this setting: 50:50 DMSO:water (v/v), over 6 days.

As usually defined, the half-life is the time in which the quantity being followed falls by half. For `COc1cccc2c1C(=O)c1c(O)c3c(c(O)c1C2=O)CC(O)(C(=O)CO)CC3OC1CC2C(OCN2CN2CO[C@@H]3C(C)O[C@H](OC4CC(O)(C(=O)CO)Cc5c(O)c6c(c(O)c54)C(=O)c4c(OC)cccc4C6=O)CC32)C(C)O1` (stereo partly drawn) [DOXF, bis(3′-N-(3′-N,4′-O-methylenedoxorubicinyl))methane], the IC50 in the data set on DU-145 (DU-145, read-out: IC50 Values, DU-145/DMEM) is 1.5 nM; in the data set on DU-145 (DU-145, read-out: IC50 Values, DU-145/RPMI-1640), 2 nM; in the data set on LNCaP (read-out: IC50 Values, LNCaP/DMEM), 0.5 nM; with LNCaP (read-out: IC50 Values, LNCaP/RPMI-1640) it was 0.5 nM; in the data set on MCF-7 cells (Homo sapiens, MCF7, read-out: IC50 Values, MCF-7) it was 1 nM; with PC-3 (PC-3, read-out: IC50 Values, PC-3/DMEM), 4.5 nM. For the same compound, the IC50 is 0.5 nM in the data set on PC-3 (PC-3, read-out: IC50 Values, PC-3/RPMI-1640) and 0.5 nM in the data set on MCF-7/ADR cells (Homo sapiens, NCI/ADR-RES, read-out: IC50 Values, MCF-7-ADR). For the same compound, the “times more cytotoxic against the MCF-7 cell line than the parent drug” value with MCF-7 cells (relative to daunorubicin and doxorubicin, respectively) was 150 times. Moreover, in the data set with MCF-7 cells (setting [3]), the “fold more toxic to MCF-7 cells than the parent drug” value is recorded as 150 fold. Moreover, the half-life in data set [1] was < 10 min. The “fold higher cytotoxicity against MCF-7/ADR cells relative to the parent drug” value with MCF-7/ADR cells (setting [3]) is reported as 10,000 fold.

Regarding “N-acetyl-3′-N,4′-O-methylenedaunorubicin”, in data set [2] (setting [4]), the degradation to daunorubicin is 9% and the fraction remaining intact amounted to 91%. In data set [2] (DMSO, after 2 h), the “degradation in DMSO solution” value is listed as “no degradation”.
